Source: ChEMBL document CHEMBL1201862, “PubChem BioAssay data set” (2004)
The source made the active and inactive calls.

Assays:
[1] = biological target: Glucose-6-phosphate 1-dehydrogenase (Homo sapiens, UniProt P11413); experiment: human G6PD enzyme inhibitors, dose response, selectivity assay for P. falciparum G6PD inhibitor project, biochemical, fluorescence (AID 504792); format: functional
[2] = biological target: Induced myeloid leukemia cell differentiation protein Mcl-1 (Homo sapiens, UniProt Q07820); format: functional
[3] = biological target: Voltage-dependent T-type calcium channel subunit alpha-1H (Homo sapiens, UniProt O95180); format: functional;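 note: channel activity triggered by adding a high calcium stimulation buffer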
P388/ADR = experiment: cells; format: functional
[4] = biological target: Eukaryotic translation initiation factor 4E (Mus musculus, UniProt P63073); experiment: eIF4E–eIF4G protein interaction inhibitors, dose response, biochemical, TR-FRET (AID 855); format: functional;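 note: potency for disrupting eIF4E binding to eIF4GI seen as loss of FRET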
Cytochrome P450 2D6 = Cytochrome P450 2D6 (Homo sapiens, UniProt P10635);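 note: CYP2D6 member of a cytochrome P450 panel assay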
SN12K1 = experiment: cells; format: functional; details: Homo sapiens
[5] = biological target: T1, Polyadenylate-binding protein 1 (Homo sapiens, UniProt P11940); experiment: PABP1 MLLE–PAM2 interaction inhibitors, dose response, miRNA deadenylation inhibitor project, biochemical, fluorescence polarization, Cy5-PAM2 peptide, secondary (AID 602260); format: functional; details: read-out: IC50_Mean
[6] = biological target: T1, Polyadenylate-binding protein 1; experiment: PABP1 MLLE–PAM2 binding inhibitor potency, dose response, biochemical, fluorescence polarization, FITC-PAM2 peptide (AID 602259); format: functional; details: read-out: IC50_Mean
HEK293 [7] = experiment: NOD1 signaling inhibitors, primary screen, cell-based, luminescence, uHTS (AID 1578); format: functional; details: Homo sapiens
HEK293 [8] = experiment: cells; format: functional, cell-based; details: Homo sapiens
HEK293 [9] = experiment: cells; format: functional, cell-based; details: Homo sapiens; remark: listed apart in the source
HEK293 [10] = experiment: NOD2 signaling inhibitors in MDP-stimulated cells, cell-based, uHTS, luminescence (AID 2001); format: functional; details: Homo sapiens
[11] = biological target: FAD-linked sulfhydryl oxidase ALR (Homo sapiens, UniProt P55789); experiment: inhibitors of human ALR sulfhydryl oxidase, dose response, biochemical, H2O2 detection, luminescence, cherry-pick (AID 493248)
Nonstructural protein 1 = Nonstructural protein 1 (Influenza A virus, UniProt Q194T2); format: functional, Influenza A virus (A/California/07/2009(H1N1))
HEK293 [12] = experiment: inhibitors of LMP1-driven NF-kB reporter, dose response, cell-based, HEK293, luciferase, cherry-pick (AID 588343); format: functional; details: Homo sapiens
[13] = biological target: T2, Corticotropin-releasing factor receptor 2/Corticotropin-releasing factor-binding protein (Homo sapiens, UniProt P24387+Q13324); experiment: Dose Response confirmation of uHTS hits for small molecule antagonists of the CRF-binding protein and CRF-R2 receptor complex.; format: functional; details: read-out: IC50_Mean
T2 sequence (Q13324 whole entry): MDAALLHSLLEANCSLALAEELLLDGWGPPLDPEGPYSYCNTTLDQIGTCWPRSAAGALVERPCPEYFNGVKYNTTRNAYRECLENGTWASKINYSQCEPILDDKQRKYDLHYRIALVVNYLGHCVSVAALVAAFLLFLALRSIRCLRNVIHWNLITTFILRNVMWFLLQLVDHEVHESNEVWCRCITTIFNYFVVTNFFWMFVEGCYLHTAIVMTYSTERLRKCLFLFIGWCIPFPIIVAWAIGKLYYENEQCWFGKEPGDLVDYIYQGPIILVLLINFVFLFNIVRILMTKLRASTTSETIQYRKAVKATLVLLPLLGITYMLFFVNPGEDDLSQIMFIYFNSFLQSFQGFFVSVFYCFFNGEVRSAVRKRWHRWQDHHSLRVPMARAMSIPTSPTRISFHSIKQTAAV
T2 sequence (P24387 whole entry): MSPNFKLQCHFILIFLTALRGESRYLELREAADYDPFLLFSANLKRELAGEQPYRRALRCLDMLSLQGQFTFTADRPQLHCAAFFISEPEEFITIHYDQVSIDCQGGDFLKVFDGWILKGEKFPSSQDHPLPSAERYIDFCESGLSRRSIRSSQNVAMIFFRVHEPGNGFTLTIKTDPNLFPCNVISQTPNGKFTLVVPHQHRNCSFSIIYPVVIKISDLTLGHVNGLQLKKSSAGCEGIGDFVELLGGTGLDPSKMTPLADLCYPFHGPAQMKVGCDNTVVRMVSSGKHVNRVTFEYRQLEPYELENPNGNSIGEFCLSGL

[14] = biological target: T2, Corticotropin-releasing factor receptor 2/Corticotropin-releasing factor-binding protein; experiment: activators of CRF receptor 2 with binding protein – uHTS hits, confirmation (AID 602473); format: functional; details: read-out: EC50_Mean
[15] = cytotoxicity in OVCAR8 ovarian cancer cells, dose response, PAX8 project, cell-based, plate reader, dry powder samples (AID 743197); format: functional; details: OVCAR-8
Paired box protein Pax-8 = Paired box protein Pax-8 (Homo sapiens, UniProt Q06710); experiment: inhibitors of PAX8-driven TPO luciferase reporter, dose response, RMG-I cells, cherry-pick (AID 687027); format: functional, cell-based;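 note: luciferase reporter driven by Pax8 target thyroperoxidase promoter measured by SteadyGlo luminescence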
[16] = Luminescence Cell-Based Dose Confirmation HTS to Identify Activators of 5'UTR Stem-Loop Driven Alpha-Synuclein mRNA Translation in H4 Neuroglioblastoma Cells. [Related pubchem assays: 1829 (Project Summary), 1814 (Primary HTS)]; format: functional
[17] = Luminescence Cell-Based Dose Response HTS to Identify Activators of Luciferase Translation or Activity in H4 […] Cells. [Related pubchem assays: 1829 (Project Summary), 1814 (Primary HTS)]; format: functional
H4 = experiment: Luminescence Cell-Based Dose Response HTS to Identify Activators of 5'UTR Stem-Loop Driven Prion Protein mRNA Translation in H4 Neuroglioblastoma Cells. [Related pubchem assays: 1829 (Project Summary), 1814 (Primary HTS)]; format: functional; details: Homo sapiens
[18] = inhibitors of clade B AD8 Env fusion, dose response, cell-based, cherry-pick (AID 652062); format: functional;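 note: luciferase signal from cell-cell fusion driven by HIV-1 clade B AD8 Env; potency is for inhibitors of fusion seen as a drop in luminescence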
[19] = inhibitors of HIV Env-driven cell fusion, dose response, cherry-pick (AID 652057); format: functional, cell-based

T1 sequence (P11940 whole entry): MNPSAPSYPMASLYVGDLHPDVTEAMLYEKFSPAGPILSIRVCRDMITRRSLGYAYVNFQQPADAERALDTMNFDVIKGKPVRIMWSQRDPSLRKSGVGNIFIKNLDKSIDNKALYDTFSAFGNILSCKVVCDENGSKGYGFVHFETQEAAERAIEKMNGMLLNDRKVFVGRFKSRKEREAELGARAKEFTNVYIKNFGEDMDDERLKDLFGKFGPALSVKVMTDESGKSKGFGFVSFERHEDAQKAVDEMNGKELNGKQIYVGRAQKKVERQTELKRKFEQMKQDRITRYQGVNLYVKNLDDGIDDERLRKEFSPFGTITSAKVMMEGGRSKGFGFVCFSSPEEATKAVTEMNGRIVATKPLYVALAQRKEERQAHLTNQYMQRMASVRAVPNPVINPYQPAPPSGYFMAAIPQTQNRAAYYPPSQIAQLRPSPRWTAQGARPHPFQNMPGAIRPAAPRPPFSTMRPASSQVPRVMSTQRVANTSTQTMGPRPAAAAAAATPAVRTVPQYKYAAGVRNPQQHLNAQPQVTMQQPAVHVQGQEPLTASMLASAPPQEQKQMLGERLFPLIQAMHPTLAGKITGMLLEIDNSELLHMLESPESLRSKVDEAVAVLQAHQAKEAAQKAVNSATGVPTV
Induced myeloid leukemia cell differentiation protein Mcl-1, sequence (Q07820 whole entry): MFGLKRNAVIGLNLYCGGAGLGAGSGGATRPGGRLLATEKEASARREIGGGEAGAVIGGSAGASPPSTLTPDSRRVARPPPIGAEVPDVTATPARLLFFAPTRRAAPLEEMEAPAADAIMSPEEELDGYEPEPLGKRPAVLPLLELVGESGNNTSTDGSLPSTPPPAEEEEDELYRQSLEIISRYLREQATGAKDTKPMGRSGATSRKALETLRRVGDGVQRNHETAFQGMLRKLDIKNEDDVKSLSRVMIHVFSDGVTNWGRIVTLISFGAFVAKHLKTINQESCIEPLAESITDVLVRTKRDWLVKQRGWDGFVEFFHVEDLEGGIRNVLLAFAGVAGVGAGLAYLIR
Voltage-dependent T-type calcium channel subunit alpha-1H, sequence (O95180 whole entry): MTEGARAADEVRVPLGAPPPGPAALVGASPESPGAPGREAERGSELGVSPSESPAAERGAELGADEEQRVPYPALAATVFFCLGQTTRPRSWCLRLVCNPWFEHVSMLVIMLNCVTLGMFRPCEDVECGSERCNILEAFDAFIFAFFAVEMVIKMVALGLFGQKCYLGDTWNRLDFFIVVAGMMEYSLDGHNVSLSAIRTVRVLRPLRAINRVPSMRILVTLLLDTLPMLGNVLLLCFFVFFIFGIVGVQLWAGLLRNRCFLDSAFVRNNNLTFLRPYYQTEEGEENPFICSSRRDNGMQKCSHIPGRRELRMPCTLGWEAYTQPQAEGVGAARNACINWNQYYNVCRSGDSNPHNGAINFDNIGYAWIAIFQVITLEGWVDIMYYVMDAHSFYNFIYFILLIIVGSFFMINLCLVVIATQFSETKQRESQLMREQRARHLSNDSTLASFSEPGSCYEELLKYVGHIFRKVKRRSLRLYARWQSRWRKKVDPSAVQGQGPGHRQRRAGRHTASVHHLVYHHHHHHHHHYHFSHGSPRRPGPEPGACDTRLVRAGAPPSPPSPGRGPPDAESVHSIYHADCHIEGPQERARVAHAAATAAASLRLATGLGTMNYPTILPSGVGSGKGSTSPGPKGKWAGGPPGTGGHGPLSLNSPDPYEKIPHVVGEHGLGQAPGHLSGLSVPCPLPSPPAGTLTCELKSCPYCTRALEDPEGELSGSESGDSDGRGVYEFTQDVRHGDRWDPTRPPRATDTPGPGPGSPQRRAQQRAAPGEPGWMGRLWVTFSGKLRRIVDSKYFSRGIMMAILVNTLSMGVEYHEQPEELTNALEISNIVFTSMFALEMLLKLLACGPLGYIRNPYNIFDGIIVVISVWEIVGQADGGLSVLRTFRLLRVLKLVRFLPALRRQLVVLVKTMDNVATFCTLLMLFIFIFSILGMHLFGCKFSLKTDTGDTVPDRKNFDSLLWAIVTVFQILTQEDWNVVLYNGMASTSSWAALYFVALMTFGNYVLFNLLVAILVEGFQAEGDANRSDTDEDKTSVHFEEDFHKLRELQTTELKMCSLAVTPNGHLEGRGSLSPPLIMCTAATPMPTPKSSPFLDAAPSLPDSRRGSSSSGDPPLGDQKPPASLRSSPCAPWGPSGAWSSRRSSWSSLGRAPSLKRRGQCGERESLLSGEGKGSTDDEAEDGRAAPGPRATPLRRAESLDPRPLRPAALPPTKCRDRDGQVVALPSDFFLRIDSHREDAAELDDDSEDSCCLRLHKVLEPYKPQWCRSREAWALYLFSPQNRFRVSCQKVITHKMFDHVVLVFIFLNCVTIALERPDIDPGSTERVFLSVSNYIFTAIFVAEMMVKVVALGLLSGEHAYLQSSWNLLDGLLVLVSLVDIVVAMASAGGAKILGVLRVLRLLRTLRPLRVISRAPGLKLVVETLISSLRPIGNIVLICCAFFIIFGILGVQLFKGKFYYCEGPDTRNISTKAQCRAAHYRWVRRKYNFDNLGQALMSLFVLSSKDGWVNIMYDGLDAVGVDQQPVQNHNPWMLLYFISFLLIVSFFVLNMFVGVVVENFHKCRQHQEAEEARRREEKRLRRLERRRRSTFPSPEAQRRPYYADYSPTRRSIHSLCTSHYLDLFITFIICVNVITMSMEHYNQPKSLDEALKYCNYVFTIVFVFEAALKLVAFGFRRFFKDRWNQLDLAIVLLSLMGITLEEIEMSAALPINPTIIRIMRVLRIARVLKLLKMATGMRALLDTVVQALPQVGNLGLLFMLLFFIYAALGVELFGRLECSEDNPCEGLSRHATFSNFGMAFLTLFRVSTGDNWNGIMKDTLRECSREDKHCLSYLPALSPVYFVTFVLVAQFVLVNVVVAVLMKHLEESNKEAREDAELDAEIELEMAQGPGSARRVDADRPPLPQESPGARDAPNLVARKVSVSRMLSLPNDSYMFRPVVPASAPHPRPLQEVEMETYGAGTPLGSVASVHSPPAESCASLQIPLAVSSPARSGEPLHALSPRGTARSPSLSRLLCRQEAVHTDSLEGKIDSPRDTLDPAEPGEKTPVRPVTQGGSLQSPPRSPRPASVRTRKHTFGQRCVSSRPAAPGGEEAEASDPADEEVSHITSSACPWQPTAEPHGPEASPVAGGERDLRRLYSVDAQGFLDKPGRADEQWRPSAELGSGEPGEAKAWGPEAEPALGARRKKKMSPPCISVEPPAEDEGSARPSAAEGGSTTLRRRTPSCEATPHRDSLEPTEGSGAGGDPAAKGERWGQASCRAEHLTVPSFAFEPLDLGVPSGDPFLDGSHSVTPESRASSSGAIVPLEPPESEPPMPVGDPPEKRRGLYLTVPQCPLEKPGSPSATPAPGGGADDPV
Eukaryotic translation initiation factor 4E, sequence (P63073 whole entry): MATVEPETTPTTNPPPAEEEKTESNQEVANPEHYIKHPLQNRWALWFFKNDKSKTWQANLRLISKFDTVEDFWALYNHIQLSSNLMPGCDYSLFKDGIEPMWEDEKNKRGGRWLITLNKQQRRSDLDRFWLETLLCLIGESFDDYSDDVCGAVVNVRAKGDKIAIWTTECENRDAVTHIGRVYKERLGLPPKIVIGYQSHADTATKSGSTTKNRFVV
Glucose-6-phosphate 1-dehydrogenase, sequence (P11413 whole entry): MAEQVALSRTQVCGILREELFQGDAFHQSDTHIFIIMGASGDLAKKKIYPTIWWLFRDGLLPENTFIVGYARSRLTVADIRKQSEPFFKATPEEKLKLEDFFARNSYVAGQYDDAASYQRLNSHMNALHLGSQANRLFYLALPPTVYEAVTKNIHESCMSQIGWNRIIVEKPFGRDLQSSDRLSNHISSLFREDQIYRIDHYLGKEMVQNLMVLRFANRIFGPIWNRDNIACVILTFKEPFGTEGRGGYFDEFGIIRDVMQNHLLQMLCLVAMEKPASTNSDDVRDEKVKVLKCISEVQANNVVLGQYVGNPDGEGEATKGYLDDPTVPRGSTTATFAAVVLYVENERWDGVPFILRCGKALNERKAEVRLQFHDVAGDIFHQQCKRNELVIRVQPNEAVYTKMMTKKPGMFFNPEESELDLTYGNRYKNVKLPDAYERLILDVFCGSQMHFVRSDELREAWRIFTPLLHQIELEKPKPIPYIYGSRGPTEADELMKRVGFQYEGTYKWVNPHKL
Paired box protein Pax-8, sequence (Q06710 whole entry): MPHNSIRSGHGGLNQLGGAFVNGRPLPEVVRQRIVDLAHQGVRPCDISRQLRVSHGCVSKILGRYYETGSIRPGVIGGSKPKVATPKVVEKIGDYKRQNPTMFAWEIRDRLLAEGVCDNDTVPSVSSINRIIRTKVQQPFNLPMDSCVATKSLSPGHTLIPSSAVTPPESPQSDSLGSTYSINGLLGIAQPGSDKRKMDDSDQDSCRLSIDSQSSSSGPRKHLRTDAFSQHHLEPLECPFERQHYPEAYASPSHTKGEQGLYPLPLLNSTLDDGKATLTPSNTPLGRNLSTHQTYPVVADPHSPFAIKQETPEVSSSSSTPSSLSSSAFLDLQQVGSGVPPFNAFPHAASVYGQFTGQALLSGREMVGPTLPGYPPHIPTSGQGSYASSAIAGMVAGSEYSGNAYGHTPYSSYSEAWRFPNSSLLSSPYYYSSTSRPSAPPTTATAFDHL
FAD-linked sulfhydryl oxidase ALR, sequence (P55789 whole entry): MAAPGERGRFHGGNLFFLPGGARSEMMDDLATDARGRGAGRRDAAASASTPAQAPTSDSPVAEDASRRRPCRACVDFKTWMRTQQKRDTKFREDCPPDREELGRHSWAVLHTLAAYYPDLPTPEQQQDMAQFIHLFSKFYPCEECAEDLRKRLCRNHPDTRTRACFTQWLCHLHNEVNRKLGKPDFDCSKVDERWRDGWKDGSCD
Nonstructural protein 1, sequence (Q194T2 whole entry): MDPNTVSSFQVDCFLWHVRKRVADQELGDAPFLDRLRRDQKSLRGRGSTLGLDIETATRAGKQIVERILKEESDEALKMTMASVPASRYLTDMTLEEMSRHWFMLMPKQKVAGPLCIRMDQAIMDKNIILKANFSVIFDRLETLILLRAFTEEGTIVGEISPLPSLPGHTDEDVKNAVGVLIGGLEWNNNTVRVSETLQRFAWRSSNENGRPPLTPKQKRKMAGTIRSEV

For `[O-][N+](=Cc1ccccc1)c1ccc(Cl)cc1`, the IC50 [1] was 57 µM (inactive).
For `NC(=O)c1nn(CC(=O)Nc2ccc3c(c2)OCO3)cc1[N+](=O)[O-]`, the IC50 [2] was 15.3 µM (not active).
With `CS(=O)(=O)N(CC(=O)N1CCN(c2ccccc2)CC1)c1ccc(Cl)c(C(F)(F)F)c1` the EC50 [3] was 5.13 µM (active).
In the case of `C=C1CC2CC[C@@]34C[C@H]5O[C@@H]6C(O[C@H]7CC[C@H](CC(=O)OC8[C@H](C)C9OC%10C[C@]%11(C[C@@H]%12O[C@]%13(C[C@H](C)[C@@H]%14O[C@H]([C@H](O)C[C@H](O)CO)C[C@@H]%14O%13)C[C@H](C)[C@@H]%12O%11)OC%10CC9O[C@H]8C[C@H]8O[C@H](CC[C@@H]1O2)C[C@@H](C)C8=C)O[C@H]7[C@@H]6O3)[C@@H]5O4` (stereo partly drawn), the GI50 (P388/ADR; Mus musculus, P388/ADR) is reported as 0.000255 µM (active).
With `COc1ccc(NC(=S)NC2CCS(=O)(=O)C2)cc1` (stereo not drawn) the IC50 [4] was > 64 µM (inactive).
For `Cc1c(NC(=O)c2cc(CC(C)C)on2)c(=O)n(-c2ccccc2)n1C`, the IC50 [4] was > 64 µM (inactive).
With `CCN(CC)CC[n+]1ccc2c(C)c3[nH]c4ccccc4c3c(C)c2c1` the AC50 (Cytochrome P450 2D6) was 3.16 µM (inconclusive), the GI50 (SN12K1) was 0.124 µM (active) and the GI50 (P388/ADR) was 19.1 µM (inactive).
For `CCc1ccc(OS(=O)(=O)c2cn(C)c(=O)n(C)c2=O)cc1`, the IC50 [5] was > 66 µM (inactive) and the IC50 [6] was > 66 µM (inactive).
With `COC(=O)c1scc(C#N)c1N/N=C(\C#N)S(=O)(=O)c1ccc(Cl)cc1` the EC50 (HEK293 [7]) was 6.08 µM (active), the IC50 (HEK293 [8]) was > 20 µM (inactive) and the IC50 (HEK293 [9]) was > 20 µM (inactive). The IC50 (HEK293 [10]) was 18.8 µM (inactive).
With `CN(C)c1ccc(CC(=O)c2nc3ccccc3s2)cc1` the IC50 [2] was 2.73 µM (active).
In the case of `CCOC(=O)c1cc(Cl)ccc1OC(N)=O`, the GI50 (SN12K1) is reported as > 100 µM (inactive).
With `COc1ccc(N2CCN(C(=O)CCNC(=O)Cn3ccc4ccccc4c3=O)CC2)cc1` the IC50 [4] was 50 µM (inactive) and the AC50 [11] was 8.16 µM (active).
In the case of `Cc1ccc(N2C(S)=NC3c4cc(Cl)ccc4OC2(C)C3C(=O)N(C)C)cc1` (stereo not drawn), the IC50 [5] is reported as > 66 µM (inactive) and the IC50 [6] is reported as > 66 µM (inactive).
In the case of `CC(=O)NC(c1ccco1)c1ccc2cccnc2c1O` (stereo not drawn), the IC50 (Nonstructural protein 1) is reported as 12.5 µM (active), the EC50 (HEK293 [7]) is reported as > 20 µM (inactive) and the IC50 (HEK293 [8]) is reported as > 20 µM (inactive). For the same molecule, the IC50 (HEK293 [9]) was > 20 µM (inactive) and the IC50 (HEK293 [10]) was > 20 µM (inactive).
In the case of `O=C(O)CCCN1C(=O)C(O)=C(C(=O)c2ccc(Cl)cc2)C1c1ccccc1` (stereo not drawn), the IC50 [5] is reported as > 66 µM (inactive) and the IC50 [6] is reported as > 66 µM (inactive).
For `Cc1ccc(CNC(=O)Cn2cccc2C(=O)c2ccccc2)cc1`, the EC50 [3] was 3.77 µM (active).
With `Oc1nncc(N/N=C/C=C/c2ccccc2)n1` the AC50 (HEK293 [12]) was 7.38 µM (active), the IC50 [13] was > 47.1 µM (inactive) and the EC50 [14] was > 53 µM (inactive).
In the case of `Cc1ccc(-n2c(Cc3cccn3C)nnc2SCC(=O)NCc2ccc3c(c2)OCO3)cc1`, the EC50 [3] is reported as 1.31 µM (active).
With `Cc1ccc(S(=O)(=O)Nc2ccc3c(c2)C(=O)N([C@@H](C)CO)C[C@H](C)[C@@H](CN(C)Cc2ccc(Cl)c(Cl)c2)OCCCC[C@@H](C)O3)cc1` the AC50 [15] was > 70 µM (inactive) and the AC50 (Paired box protein Pax-8) was 5.22 µM (active).
With `CN(CCC(=O)c1ccccc1)CCC(=O)c1ccccc1` the IC50 [5] was > 66 µM (inactive) and the IC50 [6] was > 66 µM (inactive).
For `COc1cccc2c(S)c(CCC(C)=O)c(C)nc12`, the IC50 [2] was < 0.4 µM (active).
With `Nc1cc(Nc2ccc(Br)cc2)nc(N)n1` the IC50 [5] was > 66 µM (inactive), the EC50 [16] was > 120 µM (not active) and the EC50 [17] was 17.4 µM (active). The EC50 (H4) was 11.3 µM (active) and the IC50 [6] was 55.4 µM (inactive).
With `Cc1nn(Cc2ccccc2)c(C)c1NC(=O)c1cc(-c2cccs2)on1` the EC50 [3] was 2.71 µM (active).
For `CCSc1nc2cc(S(=O)(=O)N3CCOCC3)ccc2o1`, the IC50 [1] was > 80 µM (inactive).
For `COc1ccc(OCC(=O)Nc2nnc(-c3ccco3)s2)cc1`, the IC50 [2] was 2.82 µM (active).
For `Cc1ccc(S(=O)(=O)N(C)C[C@@H]2Oc3ncc(-c4cc5ccccc5o4)cc3C(=O)N([C@H](C)CO)C[C@@H]2C)cc1`, the AC50 [18] was 36.2 µM (active) and the AC50 [19] was 17.3 µM (active).
